From patent US8008298B2, “Pyrrolopyrazine kinase inhibitors” (Roche Palo Alto, priority 2008, dated 2011)
Where a name gives a salt, the structure may show the parent alone.

Row | melting point [°C] | SMILES
1 | 259 to 260 | COc1cc(-c2cnc3[nH]cc(C(=O)C(C)(C)C)c3n2)cc(N2CC[S+]([O-])CC2)c1 [Example 269, 1-{2-[3-Methoxy-5-(1-oxo-1lambda*4*-thiomorpholin-4-yl)-phenyl]-5H-pyrrolo[2,3-b]pyrazin-7-yl}-2,2-dimethyl-propan-1-one]
2 | 267 to 268 | CC(C)(C)C(=O)c1c[nH]c2ncc(-c3cccc(O)c3)nc12 [Example I-141, 1-[2-(3-Hydroxy-phenyl)-5H-pyrrolo[2,3-b]pyrazin-7-yl]-2,2-dimethyl-propan-1-one]
3 | 202 to 203 | CC(C)(C)C(=O)c1c[nH]c2ncc(-c3cccc(CCO)c3)nc12 [Example 148, 1-{2-[3-(2-Hydroxy-ethyl)-phenyl]-5H-pyrrolo[2,3-b]pyrazin-7-yl}-2,2-dimethyl-propan-1-one]
4 | 236 to 237 | CCOc1cc(-c2cnc3[nH]cc(C(=O)C(C)(C)C)c3n2)cc(N2CCCC2)c1 [Example 262, 1-[2-(3-Ethoxy-5-pyrrolidin-1-yl-phenyl)-5H-pyrrolo[2,3-b]pyrazin-7-yl]-2,2-dimethyl-propan-1-one]
5 | 198 to 200 | COC(=O)C1(C)CCN(c2cccc(-c3cnc4[nH]cc(C(=O)C(C)(C)C)c4n3)c2)C1 (centres unmarked) [Example 209, 1-{3-[7-(2,2-Dimethyl-propionyl)-5H-pyrrolo[2,3-b]pyrazin-2-yl]-phenyl}-3-methyl-pyrrolidine-3-carboxylic acid methyl ester]
6 | 207 to 208 | CC(C)(C)C(=O)c1c[nH]c2ncc(-c3ccc(OCCN4CCCCC4)cc3)nc12 [Example I-363, 2,2-Dimethyl-1-{2-[4-(2-piperidin-1-yl-ethoxy)-phenyl]-5H-pyrrolo[2,3-b]pyrazin-7-yl}-propan-1-one]
7 | 230 to 232 | CC(C)(C)C(=O)c1c[nH]c2ncc(-c3cc(OCCS(C)(=O)=O)cc(N4CCCC4)c3)nc12 [Example 267, 1-{2-[3-(2-Methanesulfonyl-ethoxy)-5-pyrrolidin-1-yl-phenyl]-5H-pyrrolo[2,3-b]pyrazin-7-yl}-2,2-dimethyl-propan-1-one]
8 | 216 to 218 | CC1(N)CCN(c2cccc(-c3cnc4[nH]cc(C(=O)C(C)(C)C)c4n3)c2)C1 (centres unmarked) [Example 212, 1-{2-[3-(3-Amino-3-methyl-pyrrolidin-1-yl)-phenyl]-5H-pyrrolo[2,3-b]pyrazin-7-yl}-2,2-dimethyl-propan-1-one]
9 | 227 to 228.5 | CC(C)(C)C(=O)c1c[nH]c2ncc(-c3cccc(C(=O)NC4CCCC4)c3)nc12 [Example I-136, N-Cyclopentyl-3-[7-(2,2-dimethyl-propionyl)-5H-pyrrolo[2,3-b]pyrazin-2-yl]-benzamide]
10 | 239 to 241 | CC(C)(C)C(=O)c1c[nH]c2ncc(-c3cccc(N)c3)nc12 [Example 226, 1-[2-(3-Amino-phenyl)-5H-pyrrolo[2,3-b]pyrazin-7-yl]-2,2-dimethyl-propan-1-one]
11 | 249 to 250 | CC(=O)Nc1cccc(-c2cnc3[nH]cc(C(=O)C(C)(C)C)c3n2)c1 [Example 228, N-{3-[7-(2,2-Dimethyl-propionyl)-5H-pyrrolo[2,3-b]pyrazin-2-yl]-phenyl}-acetamide]
12 | 176 to 177 | CC(C)(C)C(=O)c1c[nH]c2ncc(-c3cccc(CN4CCCCC4)c3)nc12 [Example 150, 2,2-Dimethyl-1-[2-(3-piperidin-1-ylmethyl-phenyl)-5H-pyrrolo[2,3-b]pyrazin-7-yl]-propan-1-one]
13 | 215.2 to 215.8 | CC(C)(C)OC(=O)N1CCN(c2cccc(-c3cnc4[nH]cc(C(=O)C(C)(C)C)c4n3)c2)CC1 [Example I-44, 4-{3-[7-(2,2-Dimethyl-propionyl)-5H-pyrrolo[2,3-b]pyrazin-2-yl]-phenyl}-piperazine-1-carboxylic acid tert-butyl ester]
14 | 278 to 280 | CNS(=O)(=O)c1ccc(-c2cnc3[nH]cc(C(=O)C(C)(C)C)c3n2)cc1 [Example 142, 4-[7-(2,2-Dimethyl-propionyl)-5H-pyrrolo[2,3-b]pyrazin-2-yl]-N-methyl-benzenesulfonamide]
15 | 274 to 276 | CC(=O)Nc1ccc(S(=O)(=O)Nc2cc(-c3cnc4[nH]cc(C(=O)C(C)(C)C)c4n3)ccc2C)cc1 [Example I-415, N-(4-{5-[7-(2,2-Dimethyl-propionyl)-5H-pyrrolo[2,3-b]pyrazin-2-yl]-2-methyl-phenylsulfamoyl}-phenyl)-acetamide]
16 | 243 to 244 | CNC(=O)c1cccc(-c2cnc3[nH]cc(C(=O)CC(C)C)c3n2)c1 [Example I-9, N-Methyl-3-[7-(3-methyl-butyryl)-5H-pyrrolo[2,3-b]pyrazin-2-yl]-benzamide]
17 | > 300 | Cc1nnc(-c2ccc(-c3cnc4[nH]cc(C(=O)C(C)(C)C)c4n3)cc2)o1 [Example I-357, 2,2-Dimethyl-1-{2-[4-(5-methyl-[1,3,4]oxadiazol-2-yl)-phenyl]-5H-pyrrolo[2,3-b]pyrazin-7-yl}-propan-1-one]
18 | 234 to 246 | CC(C)(C)C(=O)c1c[nH]c2ncc(-c3ccc(N4CCNCC4)cc3)nc12 [Example I-45, 2,2-Dimethyl-1-[2-(4-piperazin-1-yl-phenyl)-5H-pyrrolo[2,3-b]pyrazin-7-yl]-propan-1-one]
19 | 170 to 171 | CC(C)(C)C(=O)c1c[nH]c2ncc(-c3cccc(CCCO)c3)nc12 [Example 143, 1-{2-[3-(3-Hydroxy-propyl)-phenyl]-5H-pyrrolo[2,3-b]pyrazin-7-yl}-2,2-dimethyl-propan-1-one]
20 | 200 to 202 | CCNC1CCN(c2cccc(-c3cnc4[nH]cc(C(=O)C(C)(C)C)c4n3)c2)C1 (centres unmarked) [Example 208, 1-{2-[3-(3-Ethylamino-pyrrolidin-1-yl)-phenyl]-5H-pyrrolo[2,3-b]pyrazin-7-yl}-2,2-dimethyl-propan-1-one]
21 | 198.4 to 202.7 | CC(C)(C)C(=O)c1c[nH]c2ncc(-c3ccc(OCCN4CCOCC4)cc3)nc12 [Example I-40, 2,2-Dimethyl-1-{2-[4-(2-morpholin-4-yl-ethoxy)-phenyl]-5H-pyrrolo[2,3-b]pyrazin-7-yl}-propan-1-one]

More lines, now with the values behind:

Row | SMILES | melting point [°C]
22 | COc1cc(-c2cnc3[nH]cc(C(=O)C(C)(CO)CO)c3n2)cc(OC)c1OC [Example 58, 3-Hydroxy-2-hydroxymethyl-2-methyl-1-[2-(3,4,5-trimethoxy-phenyl)-5H-pyrrolo[2,3-b]pyrazin-7-yl]-propan-1-one] | 222 to 223
23 | COc1cc(-c2cnc3[nH]cc(C(=O)CCC(C)OC)c3n2)cc(OC)c1OC (centres unmarked) [Example 129, 4-Methoxy-1-[2-(3,4,5-trimethoxy-phenyl)-5H-pyrrolo[2,3-b]pyrazin-7-yl]-pentan-1-one] | 150 to 151
24 | CNc1ccc(-c2cnc3[nH]cc(C(=O)C4(C)CCCCC4)c3n2)cc1 [Example 171, [2-(4-Methylamino-phenyl)-5H-pyrrolo[2,3-b]pyrazin-7-yl]-(1-methyl-cyclohexyl)-methanone] | 273 to 275
25 | COc1cc(-c2cnc3[nH]cc(C(=O)NCC(C)(C)CO)c3n2)cc(OC)c1OC [Example 15, 2-(3,4,5-Trimethoxy-phenyl)-5H-pyrrolo[2,3-b]pyrazine-7-carboxylic acid (3-hydroxy-2,2-dimethyl-propyl)-amide] | 224 to 225
26 | COc1cc(-c2cnc3[nH]cc(C(=O)N4CCCC4)c3n2)cc(OC)c1OC [Example 240, Pyrrolidin-1-yl-[2-(3,4,5-trimethoxy-phenyl)-5H-pyrrolo[2,3-b]pyrazin-7-yl]-methanone] | 210 to 212
27 | COc1cc(-c2cnc3[nH]cc(C(=O)C(C)(C)OC)c3n2)cc(OC)c1OC [Example 131, 2-Methoxy-2-methyl-1-[2-(3,4,5-trimethoxy-phenyl)-5H-pyrrolo[2,3-b]pyrazin-7-yl]-propan-1-one] | 237.8 to 239.1
28 | COc1cc(-c2cnc3[nH]cc(C(=O)NCC(C)OC)c3n2)cc(OC)c1OC (centres unmarked) (as salt: hydrochloride) [Example 24, 2-(3,4,5-Trimethoxy-phenyl)-5H-pyrrolo[2,3-b]pyrazine-7-carboxylic acid (2-methoxy-propyl)-amide] | 199 to 200
29 | COc1cc(-c2cnc3[nH]cc(C(=O)C4(C)CCC(=O)C4)c3n2)cc(OC)c1OC (centres unmarked) [Example 214, 3-Methyl-3-[2-(3,4,5-trimethoxy-phenyl)-5H-pyrrolo[2,3-b]pyrazine-7-carbonyl]-cyclopentanone] | 238 to 240
30 | COc1ccc(-c2cnc3[nH]cc(C(=O)NC4CCN(C)C4)c3n2)cc1OC (centres unmarked) [Example 25, 2-(3,4-Dimethoxy-phenyl)-5H-pyrrolo[2,3-b]pyrazine-7-carboxylic acid (1-methyl-pyrrolidin-3-yl)-amide] | 193 to 194
31 | COc1cc(-c2cnc3[nH]cc(C(=O)C(C)C)c3n2)cc(OC)c1OC [Example 68, 2-Methyl-1-[2-(3,4,5-trimethoxy-phenyl)-5H-pyrrolo[2,3-b]pyrazin-7-yl]-propan-1-one] | 189 to 190
32 | COc1ccc(COc2cccc(-c3cnc4[nH]cc(C(=O)NC(C)C)c4n3)c2)cc1 [Example I-229, 2-[3-(4-Methoxy-benzyloxy)-phenyl]-5H-pyrrolo[2,3-b]pyrazine-7-carboxylic acid isopropylamide] | 215 to 216
33 | CC1(C(=O)c2c[nH]c3ncc(-c4cccc(N5CCCC5)c4)nc23)CC[C@@H]2CCC[C@@H]21 (stereo partly drawn) [Example 215, ((3aS,6aS)-1-Methyl-octahydro-pentalen-1-yl)-[2-(3-pyrrolidin-1-yl-phenyl)-5H-pyrrolo[2,3-b]pyrazin-7-yl]-methanone] | 200 to 202
34 | CC1(C(=O)c2c[nH]c3ncc(-c4cccc(N5CCCC5)c4)nc23)CCCCCC1 [Example 160, (1-Methyl-cycloheptyl)-[2-(3-pyrrolidin-1-yl-phenyl)-5H-pyrrolo[2,3-b]pyrazin-7-yl]-methanone] | 192 to 193
35 | CN1CCN(c2ccc(-c3cnc4[nH]cc(C(=O)C5(C)CCCCC5)c4n3)cc2)CC1 [Example 170, (1-Methyl-cyclohexyl)-{2-[4-(4-methyl-piperazin-1-yl)-phenyl]-5H-pyrrolo[2,3-b]pyrazin-7-yl}-methanone] | 225 to 226
